The source of these data is patent publication US8283378B2, “Phenylurea inhibitors of the SOAT-1 enzyme and pharmaceutical/cosmetic compositions comprised thereof” (Galderma Research & Development, priority 2007, dated 2012).

pIC50: −log10 of the molar value.

This assay concerns the target T1, enzyme ACAT-1 (Homo sapiens, UniProt P35610).
T1 construct: endogenous in cells; host or cells: HepG2
T1 sequence (P35610 1-550): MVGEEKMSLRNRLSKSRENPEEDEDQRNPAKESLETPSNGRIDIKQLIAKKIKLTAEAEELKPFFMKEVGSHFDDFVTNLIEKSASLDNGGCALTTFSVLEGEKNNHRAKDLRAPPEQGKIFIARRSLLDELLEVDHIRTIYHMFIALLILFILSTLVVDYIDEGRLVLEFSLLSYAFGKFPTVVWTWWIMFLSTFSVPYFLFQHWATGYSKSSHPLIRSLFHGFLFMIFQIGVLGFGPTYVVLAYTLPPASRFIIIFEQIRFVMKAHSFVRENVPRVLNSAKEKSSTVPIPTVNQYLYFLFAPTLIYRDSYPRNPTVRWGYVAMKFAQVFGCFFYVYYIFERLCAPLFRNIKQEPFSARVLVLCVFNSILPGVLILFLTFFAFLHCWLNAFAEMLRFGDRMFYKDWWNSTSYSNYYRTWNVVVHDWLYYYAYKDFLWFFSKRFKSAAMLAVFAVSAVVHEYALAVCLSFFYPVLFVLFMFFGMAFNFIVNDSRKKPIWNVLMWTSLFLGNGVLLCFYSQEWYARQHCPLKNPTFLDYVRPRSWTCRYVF
The experiment in a line: primary HepG2 enzyme test: cell-based NBD-cholesterol fluorescence assay of ACAT-1 (SOAT-1) inhibition. The conditions noted are these: HepG2 cells, NBD-cholesterol 1 μg/ml, incubation 6 h at 37° C., fluorescence excitation 490 nm / emission 540 nm. The method, then: The compounds (I) according to the invention, as well as their pharmaceutically acceptable salts, solvates and/or hydrates, display SOAT-1 enzyme inhibiting properties. This inhibitory effect on the SOAT-1 enzyme is measured by a primary HepG2 enzyme test, as described below.
The compounds of formula (I) according to the invention were tested to evaluate their inhibitory activity with respect to the enzyme ACAT-1 based on the following work: “Identification of ACAT1- and ACAT2-specific inhibitors using a novel, cell based fluorescence assay: individual ACAT uniqueness”, J. lipid. Res (2004) vol 45, pages 378-386. The principle of this test is based on the use of NBD-cholesterol, an analogue of cholesterol with fluorescence depending on its environment. When it is in a polar environment it is weakly fluorescent, whereas in a non-polar environment it is strongly fluorescent. Free NBD-cholesterol localizes in the cell membranes and is weakly fluorescent in this polar environment. […]
The following method is used: HepG2 cells are incubated in the presence of NBD-cholesterol (1 μg/ml) and of the test compound of formula (I) in black, transparent-bottom 96-well plates at a rate of 30000 cells per well. […] After adding 50 μl of lysis buffer (NaPO4 10 mM, Igepal 1%) the plates are agitated for 5 min and, read in fluorescence (excitation 490 nm, emission 540 nm) on a FUSION instrument (Perkin Elmer).

The term pIC50 denotes the IC50 on a negative log10 scale, so that one unit is a factor of ten. The compound `CC(C)c1cccc(C(C)C)c1NC(=O)NCC1(SCc2ccccc2)CCCCC1` [Compound (I.4), 1-(1-Benzylsulfanyl-cyclohexylmethyl)-3-(2,6-diisopropyl-phenyl)-urea] gave a pIC50 of 7.15.
